# Data as given in paper PMC3739791, “Sonic Hedgehog-Induced Histone Deacetylase Activation Is Required for Cerebellar Granule Precursor Hyperplasia in Medulloblastoma” (PLoS ONE, 2013).
# Target: T1, HDAC6 (Mus musculus, UniProt Q9Z2V5)
# T1 sequence (Q9Z2V5 1-1149): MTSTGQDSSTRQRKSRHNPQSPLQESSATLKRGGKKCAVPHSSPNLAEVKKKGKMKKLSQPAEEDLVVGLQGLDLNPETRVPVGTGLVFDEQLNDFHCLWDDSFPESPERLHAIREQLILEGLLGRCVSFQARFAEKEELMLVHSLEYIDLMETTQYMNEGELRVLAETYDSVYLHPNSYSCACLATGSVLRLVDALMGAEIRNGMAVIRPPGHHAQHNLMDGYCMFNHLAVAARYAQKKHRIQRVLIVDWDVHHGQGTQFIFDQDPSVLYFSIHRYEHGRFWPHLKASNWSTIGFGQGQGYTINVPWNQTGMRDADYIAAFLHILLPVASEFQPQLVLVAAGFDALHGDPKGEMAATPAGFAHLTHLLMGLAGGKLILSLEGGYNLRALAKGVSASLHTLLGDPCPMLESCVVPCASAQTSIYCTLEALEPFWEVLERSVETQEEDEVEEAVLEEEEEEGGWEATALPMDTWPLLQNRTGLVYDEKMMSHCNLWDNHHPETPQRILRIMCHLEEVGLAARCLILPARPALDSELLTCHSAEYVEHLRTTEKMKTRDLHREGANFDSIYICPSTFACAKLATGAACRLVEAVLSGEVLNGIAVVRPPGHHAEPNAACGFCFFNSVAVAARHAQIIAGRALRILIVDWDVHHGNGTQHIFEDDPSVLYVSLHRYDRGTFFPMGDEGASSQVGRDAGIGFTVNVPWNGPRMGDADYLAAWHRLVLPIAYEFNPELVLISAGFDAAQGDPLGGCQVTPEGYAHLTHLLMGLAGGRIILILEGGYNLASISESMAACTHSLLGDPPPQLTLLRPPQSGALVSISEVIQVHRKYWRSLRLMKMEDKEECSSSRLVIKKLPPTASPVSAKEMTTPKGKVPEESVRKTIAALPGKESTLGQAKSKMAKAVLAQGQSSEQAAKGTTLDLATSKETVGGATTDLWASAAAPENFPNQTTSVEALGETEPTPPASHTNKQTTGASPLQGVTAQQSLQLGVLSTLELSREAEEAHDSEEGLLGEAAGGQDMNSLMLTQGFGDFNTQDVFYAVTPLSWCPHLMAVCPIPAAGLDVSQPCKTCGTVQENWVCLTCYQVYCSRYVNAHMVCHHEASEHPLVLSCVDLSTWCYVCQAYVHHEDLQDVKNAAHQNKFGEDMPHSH
# Test: acetylated tubulin immunohistochemistry in brain sections of treated Smo/Smo mice (readout of HDAC6 inhibition in vivo)
# Assay type: cell-based
compound,measurement,value
CN1CCc2c(c3ccccc3n2Cc2ccc(C(=O)NO)cc2)C1 [Tubastatin A],acetylated tubulin immunohistochemistry in brain sections of treated Smo/Smo mic,although tubulin acetylation as a measure for HDAC6 inhibition was increased (Fig. S4)
